Several values for one entry are separate records, joined by “and”; a condition that tells them apart may be missing. Identical values can stand only once. Inconclusive results and toxic doses are left out.
Tested on: BDF1 mice, B16 melanoma ip, median survival T/C
Assay: NCI In Vivo Anticancer Drug Screen. Data for tumor model B16 Melanoma (intraperitoneal) in B6D2F1 (BDF1) mice
Conditions: endpoint: median survival time, higher = longer survival
Method in brief: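 Mice with transplantable tumors; drug vs vehicle groups; endpoint survival or tumor size; value = T/C.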

Which T/C (dose: 0.1 mg/kg/injection, schedule: Q01DX009 (ip), vehicle: saline) does the source give for `COc1cc(NS(C)(=O)=O)ccc1Nc1c2ccccc2nc2ccccc12` here?
Its T/C is 102 % of control.

What about the T/C (dose: 0.2 mg/kg/injection, schedule: Q01DX009 (ip), vehicle: saline) of the same compound?
Its T/C is 118 % of control.

What about the T/C (dose: 0.25 mg/kg/injection, schedule: Q01DX009 (ip), vehicle: other) of the same compound?
Its T/C is 119 % of control.

What about the T/C (dose: 0.5 mg/kg/injection, schedule: Q01DX009 (ip), vehicle: Klucel (hydroxypropylcellulose) (HPC)) of the same compound?
The T/C was 183 % of control.

And the T/C (dose: 0.5 mg/kg/injection, schedule: Q01DX009 (ip), vehicle: lactic acid)?
The T/C was 150 % of control.

And the T/C (dose: 0.5 mg/kg/injection, schedule: Q01DX009 (ip), vehicle: other)?
The T/C was 120 % of control.

And the T/C (dose: 0.5 mg/kg/injection, schedule: Q03HX024 (oral), vehicle: lactic acid)?
Its T/C is 100 % of control.

And the T/C (dose: 0.75 mg/kg/injection, schedule: Q01DX009 (ip), vehicle: other)?
The T/C was 113 % of control.

And the T/C (dose: 0.8 mg/kg/injection, schedule: Q01DX005 (iv), vehicle: lactic acid)?
Its T/C is 100 % of control.

And the T/C (dose: 0.8 mg/kg/injection, schedule: Q01DX009 (ip), vehicle: Klucel (hydroxypropylcellulose) (HPC))?
Its T/C is 180 % of control.

What about the T/C (dose: 0.8 mg/kg/injection, schedule: Q01DX009 (ip), vehicle: saline) of the same compound?
Its T/C is 177 % of control.

And the T/C (dose: 0.8 mg/kg/injection, schedule: Q04DX003 (iv), vehicle: lactic acid)?
The T/C was 102 % of control.

And the T/C (dose: 1.0 mg/kg/injection, schedule: Q01DX009 (ip), vehicle: Klucel (hydroxypropylcellulose) (HPC))?
The T/C was 160 % of control and 166 % of control and 189 % of control.

And the T/C (dose: 1.0 mg/kg/injection, schedule: Q01DX009 (ip), vehicle: clinical formulation)?
Its T/C is 183 % of control.

What about the T/C (dose: 1.0 mg/kg/injection, schedule: Q01DX009 (ip), vehicle: lactic acid) of the same compound?
The T/C was 202 % of control.

And the T/C (dose: 1.0 mg/kg/injection, schedule: Q01DX009 (oral), vehicle: lactic acid)?
Its T/C is 96 % of control.

What about the T/C (dose: 1.0 mg/kg/injection, schedule: Q01DX009 (oral), vehicle: other) of the same compound?
Its T/C is 106 % of control and 109 % of control.

And the T/C (dose: 1.0 mg/kg/injection, schedule: Q03HX024 (oral), vehicle: lactic acid)?
Its T/C is 97 % of control.

And the T/C (dose: 1.0 mg/kg/injection, schedule: Q04DX003 (ip), vehicle: other)?
Its T/C is 118 % of control.

What about the T/C (dose: 1.25 mg/kg/injection, schedule: Q01DX009 (ip), vehicle: saline) of the same compound?
The T/C was 177 % of control.

And the T/C (dose: 1.5 mg/kg/injection, schedule: Q01DX009 (ip), vehicle: other)?
Its T/C is 114 % of control.

And the T/C (dose: 1.6 mg/kg/injection, schedule: Q01DX005 (iv), vehicle: lactic acid)?
The T/C was 110 % of control.

What about the T/C (dose: 1.6 mg/kg/injection, schedule: Q04DX003 (iv), vehicle: lactic acid) of the same compound?
The T/C was 92 % of control.

What about the T/C (dose: 2.0 mg/kg/injection, schedule: Q01DX009 (ip), vehicle: Klucel (hydroxypropylcellulose) (HPC)) of the same compound?
Its T/C is 184 % of control.

And the T/C (dose: 2.0 mg/kg/injection, schedule: Q01DX009 (ip), vehicle: clinical formulation)?
The T/C was 212 % of control.

And the T/C (dose: 2.0 mg/kg/injection, schedule: Q01DX009 (ip), vehicle: lactic acid)?
Its T/C is 218 % of control.

What about the T/C (dose: 2.0 mg/kg/injection, schedule: Q01DX009 (ip), vehicle: other) of the same compound?
Its T/C is 158 % of control.

And the T/C (dose: 2.0 mg/kg/injection, schedule: Q01DX009 (oral), vehicle: lactic acid)?
The T/C was 98 % of control.

What about the T/C (dose: 2.0 mg/kg/injection, schedule: Q01DX009 (oral), vehicle: other) of the same compound?
The T/C was 105 % of control and 109 % of control.

And the T/C (dose: 2.0 mg/kg/injection, schedule: Q03HX016 (oral), vehicle: lactic acid)?
Its T/C is 101 % of control.

What about the T/C (dose: 2.0 mg/kg/injection, schedule: Q03HX024 (oral), vehicle: lactic acid) of the same compound?
The T/C was 101 % of control.

And the T/C (dose: 2.0 mg/kg/injection, schedule: Q04DX003 (oral), vehicle: lactic acid)?
The T/C was 105 % of control.

And the T/C (dose: 2.0 mg/kg/injection, schedule: Q04DX003 (oral), vehicle: other)?
Its T/C is 105 % of control and 96 % of control.

What about the T/C (dose: 3.0 mg/kg/injection, schedule: Q01DX009 (ip), vehicle: Klucel (hydroxypropylcellulose) (HPC)) of the same compound?
Its T/C is 250 % of control.

And the T/C (dose: 3.12 mg/kg/injection, schedule: Q01DX009 (ip), vehicle: saline)?
The T/C was 113 % of control.

What about the T/C (dose: 3.3 mg/kg/injection, schedule: Q01DX005 (iv), vehicle: lactic acid) of the same compound?
The T/C was 155 % of control.

And the T/C (dose: 3.3 mg/kg/injection, schedule: Q04DX003 (iv), vehicle: lactic acid)?
The T/C was 105 % of control.

And the T/C (dose: 3.75 mg/kg/injection, schedule: Q04DX003 (ip), vehicle: clinical formulation)?
The T/C was 173 % of control.

What about the T/C (dose: 4.0 mg/kg/injection, schedule: Q01DX009 (oral), vehicle: lactic acid) of the same compound?
Its T/C is 105 % of control.

And the T/C (dose: 4.0 mg/kg/injection, schedule: Q01DX009 (oral), vehicle: other)?
The T/C was 100 % of control and 96 % of control.

And the T/C (dose: 4.0 mg/kg/injection, schedule: Q04DX003 (oral), vehicle: lactic acid)?
The T/C was 110 % of control.

What about the T/C (dose: 4.0 mg/kg/injection, schedule: Q04DX003 (oral), vehicle: other) of the same compound?
Its T/C is 97 % of control and 105 % of control and 103 % of control.

And the T/C (dose: 5.0 mg/kg/injection, schedule: Q01DX009 (ip), vehicle: Klucel (hydroxypropylcellulose) (HPC))?
Its T/C is 223 % of control.

What about the T/C (dose: 6.0 mg/kg/injection, schedule: Q01DX009 (ip), vehicle: other) of the same compound?
The T/C was 72 % of control.

And the T/C (dose: 6.25 mg/kg/injection, schedule: Q01DX009 (ip), vehicle: saline)?
The T/C was 124 % of control.

What about the T/C (dose: 6.5 mg/kg/injection, schedule: Q01DX005 (iv), vehicle: lactic acid) of the same compound?
Its T/C is 112 % of control.

What about the T/C (dose: 6.5 mg/kg/injection, schedule: Q04DX003 (iv), vehicle: lactic acid) of the same compound?
The T/C was 107 % of control.

What about the T/C (dose: 7.5 mg/kg/injection, schedule: Q04DX003 (ip), vehicle: clinical formulation) of the same compound?
The T/C was 193 % of control.

And the T/C (dose: 8.0 mg/kg/injection, schedule: Q01DX001 (ip), vehicle: lactic acid)?
The T/C was 151 % of control.

And the T/C (dose: 8.0 mg/kg/injection, schedule: Q01DX001 (oral), vehicle: lactic acid)?
The T/C was 110 % of control.

And the T/C (dose: 8.0 mg/kg/injection, schedule: Q01DX009 (oral), vehicle: other)?
Its T/C is 105 % of control and 103 % of control.

What about the T/C (dose: 8.0 mg/kg/injection, schedule: Q04DX003 (ip), vehicle: other) of the same compound?
The T/C was 188 % of control.

And the T/C (dose: 8.0 mg/kg/injection, schedule: Q04DX003 (oral), vehicle: lactic acid)?
The T/C was 111 % of control.

And the T/C (dose: 8.0 mg/kg/injection, schedule: Q04DX003 (oral), vehicle: other)?
The T/C was 105 % of control [middle of 4 runs].

And the T/C (dose: 8.0 mg/kg/injection, schedule: Q08DX002 (oral), vehicle: lactic acid)?
The T/C was 107 % of control.

And the T/C (dose: 12.5 mg/kg/injection, schedule: Q01DX009 (ip), vehicle: saline)?
Its T/C is 163 % of control.

And the T/C (dose: 12.5 mg/kg/injection, schedule: Q04DX003 (ip), vehicle: Klucel (hydroxypropylcellulose) (HPC))?
Its T/C is 166 % of control.

And the T/C (dose: 13.0 mg/kg/injection, schedule: Q04DX003 (iv), vehicle: lactic acid)?
Its T/C is 120 % of control.

What about the T/C (dose: 15.0 mg/kg/injection, schedule: Q04DX003 (ip), vehicle: clinical formulation) of the same compound?
Its T/C is 173 % of control.

What about the T/C (dose: 16.0 mg/kg/injection, schedule: Q01DX001 (oral), vehicle: lactic acid) of the same compound?
Its T/C is 110 % of control.

What about the T/C (dose: 16.0 mg/kg/injection, schedule: Q04DX003 (ip), vehicle: other) of the same compound?
The T/C was 152 % of control.

And the T/C (dose: 16.0 mg/kg/injection, schedule: Q04DX003 (oral), vehicle: other)?
The T/C was 97 % of control and 113 % of control and 110 % of control.

What about the T/C (dose: 16.0 mg/kg/injection, schedule: Q08DX002 (oral), vehicle: lactic acid) of the same compound?
Its T/C is 108 % of control.

And the T/C (dose: 25.0 mg/kg/injection, schedule: Q01DX001 (ip), vehicle: saline sonified)?
Its T/C is 166 % of control.

What about the T/C (dose: 25.0 mg/kg/injection, schedule: Q01DX001 (ip), vehicle: saline) of the same compound?
The T/C was 160 % of control.

What about the T/C (dose: 25.0 mg/kg/injection, schedule: Q04DX003 (ip), vehicle: Klucel (hydroxypropylcellulose) (HPC)) of the same compound?
Its T/C is 285 % of control.

What about the T/C (dose: 26.0 mg/kg/injection, schedule: Q04DX003 (iv), vehicle: lactic acid) of the same compound?
Its T/C is 120 % of control.

What about the T/C (dose: 32.0 mg/kg/injection, schedule: Q01DX001 (oral), vehicle: lactic acid) of the same compound?
The T/C was 116 % of control.

What about the T/C (dose: 32.0 mg/kg/injection, schedule: Q04DX003 (oral), vehicle: other) of the same compound?
The T/C was 121 % of control [middle of 4 runs].

And the T/C (dose: 32.0 mg/kg/injection, schedule: Q08DX002 (oral), vehicle: lactic acid)?
Its T/C is 115 % of control.

What about the T/C (dose: 50.0 mg/kg/injection, schedule: Q01DX001 (ip), vehicle: saline sonified) of the same compound?
The T/C was 102 % of control.

What about the T/C (dose: 64.0 mg/kg/injection, schedule: Q04DX003 (oral), vehicle: other) of the same compound?
The T/C was 110 % of control.

What about the T/C (dose: 100.0 mg/kg/injection, schedule: Q01DX001 (ip), vehicle: saline sonified) of the same compound?
The T/C was 169 % of control.

Source: PubChem BioAssay AID192 (DTP/NCI, 2004)
